Among the data in patent US9120728B2, “Modulators of cortical dopaminergic- and NMDA-receptor-mediated glutamatergic neurotransmission” (INTEGRATIVE RESEARCH LABORATORIES SWEDEN AB, priority 2011, dated 2015) are ED50 values, retold here.

Assay [1] deals with d-amphetamine pre-treated rats. Briefly: Reduction of amphetamine-induced hyper-locomotion. The format is in vivo. To be noted: Rattus norvegicus; rats pre-treated with d-amphetamine 1.5 mg/kg i.p.; test compound 0-100 μmol/kg s.c.; distance during last 45 minutes of one hour. The source says:
The increase in activity after treatment with d-amphetamine is a standard model of hyperdopaminergia. In this model, dopaminergic neurotransmission is increased by systemic administration of d-amphetamine at a dose that is sufficiently high to produce a large increase in locomotor activity. The ability of a compound to antagonize this hyperactivity reflects anti-dopaminergic properties. Furthermore, antagonism of d-amphetamine induced hyperactivity is widely used as a standard assay of antipsychotic activity (see Psychopharmacology 4th Generation of progress Chapter 68, p 793-795).
(§1) Behavioural activity is measured using eight Digiscan activity monitors (RXYZM (16) TAO, Omnitech Electronics, Columbus, Ohio, USA), connected to an Omnitech Digiscan analyzer and an Apple Macintosh computer equipped with a digital interface board (NB DIO-24, National Instruments, USA). […]
(§2) Behavioural data from each activity monitor, representing the position (horizontal center of gravity and vertical activity) of the animal at each time, are recorded at a sampling frequency of 25 Hz and collected using a custom written LABView™ application. The data from each recording session are stored and analyzed with respect to distance traveled. […]
ED50 value for reduction of amphetamine-induced hyper-locomotion is calculated by curve fitting. […]

The next assay relates to MK-801 pre-treated rats. Briefly: Reduction of MK-801-induced hyper-locomotion. It counts as in vivo. To be noted: Rattus norvegicus; MK-801 0.7 mg/kg i.p. 90 minutes before test compound; locomotor activity between 45 and 60 minutes after administration; 0-100 μmol/kg s.c.
Excerpt: Reduction of MK-801-Induced Hyper-Locomotion Another animal model of antipsychotic activity is based on administration of the glutamate antagonist MK-801. Glutamate antagonists (i.e. NMDA antagonists), can induce psychoses in man (see Psychopharmacology, 4th Generation of progress Chapter 101, p. 1205 and 1207) and induce behavioural aberrations in animals. Thus, the ability of a drug to affect schizophrenia and psychotic states can be measured using behavioural models based on experimentally-induced hypoglutamatergic states. In this study the NMDA antagonist MK-801 (0.7 mg/kg i.p.) was used to create a hypoglutamatergic state where the rats display abnormal, hyperactive behaviour.
as §1, §2

With `CCCNCCOc1cc(F)cc(S(C)(=O)=O)c1` [Example 1, N-[2-(3-fluoro-5-methylsulfonyl-phenoxy)ethyl]propan-1-amine], the results for the 50% effective dose (ED50) (in assay [1]; in the assay with MK-801 pre-treated rats) were 24 µmol/kg and 5.6 µmol/kg, respectively.

As a reminder, the ED50 is the dose at which the effect has come halfway, by size or by number of responders.
